This note sets out measurements from patent publication US20250163016A1, “PYRIDINE DERIVATIVE, PREPARATION METHOD THEREFOR AND USE THEREOF” (CHENGDU EASTON BIOPHARMACEUTICALS CO., LTD., priority 2022, published 2025).

Data set [1] is described as follows: Pharmacokinetics of oral administration of rats. It counts as in vivo. The conditions noted are these: male, rat, SD rats, p.o. 5.0 mg/kg, plasma. As to the method: With SD rats as tested animals, blood drug concentrations in plasma at different moments after oral administration of the compounds of the present application by the rats in a clarification kit mode were determined using an LC-MS/MS method. Pharmacokinetic parameters of the compounds of the present application in the rats were obtained, and pharmacokinetic characteristics of the compounds were studied.
• SD rats, male, weight 180-220 g, 3 rats per group. The animals were fed in an animal house after being purchased, an adaptation period was at least 3 days, and they were used for tests after passing quarantine.
According to Table 4, each group of rats was given the corresponding tested drugs or positive drugs by gavage, before administration, and 15 min, 30 min, 1 h, 2 h, 4 h, 6 h, 8 h, and 24 h after administration, a fixed volume of blood was collected through eye sockets and placed in an EDTA-K2 anticoagulant tube, centrifuging was carried out at 8000 rpm for 1 min to separate plasma into a centrifuge tube, and the plasma was frozen in a −20° C. refrigerator.
The plasma at each time point stored at −20° C. was taken out, then acetonitrile was added, after whirling at 1500 revolutions for 2 min, centrifuging was carried out for 15 min (3500 r/min), and a fixed volume of solution supernatant was taken for LC-MS/MS analysis.
Non-compartment model fitting was carried out on pharmacokinetic behaviors of the tested compounds, and DAS3.31 software was adopted to calculate main pharmacokinetic parameters (T1/2, Tmax, Cmax, AUClast, etc.).

The nature of data set [2]: Liver microsome stability, dogs. It counts as in vitro ADME. The settings on record: Dogs liver microsomes; for CLint scaled / half-life: dog; for half-life: NADPH, 37° C. The procedure: (§1) A liver microsome in-vitro warm incubation method used liver microsomes, supplemented by an NADPH regeneration system, to simulate physiological environmental conditions in vitro for metabolic reaction, after a certain period of reaction, LC-MS/MS was used to determine prototype drugs and metabolites in a warm incubation solution, and the content was preliminarily analyzed. Studying the liver microsome stability of drugs in different species was crucial for understanding a change process of the drugs in vivo.
(§2) 2.1. Liver Microsomes in Different Species Including Rats, Mice, Humans, Dogs and Monkeys
(§3) According to the requirements of the instructions of a Phase I Metabolic Stability Kit, a liver microsome incubation system was prepared, and according to a sequence, a mixed system of a PBS, liver microsomes, an NADPH regeneration system solution A and an NADPH regeneration system solution B, as well as substances to be tested were added in sequence respectively, and were incubated at 37° C. Each sample was parallelized 3 times, with a sample without an NADPH generation system as a negative control, after 0, 5, 15, 30, 45, and 60 min, equal volumes of pre-cooled acetonitrile were added to terminate the reaction respectively, and the prototype drug content in a warm incubation solution was determined by LC-MS/MS.
For orientation: Liver microsomes are a subcellular fraction often used to study metabolism.

The nature of data set [3]: Liver microsome stability, monkeys. It counts as in vitro ADME. The settings on record: Monkeys liver microsomes; for CLint scaled / half-life: monkey; for half-life: NADPH, 37° C. The procedure: as §1, §2, §3
The next data set concerns NCI-H1417 cells. Briefly: NCI-H1417 cell proliferation inhibition test (Celltiter GLO). It counts as cell-based. The settings on record: Homo sapiens, 168 h, NCI-H1417, 7 days culture. As to the method: Research had confirmed that LSD1 played a crucial role in the occurrence process of various types of cancers, including small cell lung cancer (SCLC) and acute myeloid leukemia (AML). Therefore, a human small cell lung cancer (NCI-H1417) cell line was used to determine the ATP content in cells at different drug concentrations using a Celltiter GLO assay kit, and the cell activity was reflected by luminescence intensity. IC50 values of different compounds on the NCI-H1417 cells were calculated using inhibition rates. The inhibitory effects of the compounds in the present application on the proliferation of the NCI-H1417 cells were studied to evaluate the anti-tumor efficacy of the tested compounds at the cellular level.
• Day 1 Cells were seeded into the 384-well cell culture plate and placed in a 37° C. 5% CO2 cell incubator to be cultured overnight. • Day 0 The compound to be tested was prepared into a 10 mM mother liquid using DMSO, starting from 1 μM, diluted by 3 folds, with 10 concentration points and double duplicate wells. A diluted compound was added into the 384-well cell culture plate and placed in a 37° C. 5% CO2 cell incubator to be cultured for 7 days. The concentration of the DMSO in a cell culture system was 0.1%. • Day 7 Celltiter GLO was added into the 384-well cell culture plate according to a volume ratio of culture system:Celltiter GLO=1:1, light-shielded oscillation was carried out on a plate oscillator for 3 min, then the cell culture plate was placed at the room temperature for 30 min with light shielded, and the plate was read using a multifunctional microplate reader chemical light emitting module.
An inhibition percentage was calculated by utilizing luminescence intensity of the above DMSO group (with DMSO added), test group (with the tested compound and a positive control solution added) and blank group (not treating cells), a calculation formula being
Using a logarithm of the concentration as an X axis and the percentage inhibition rate as a Y axis, a dose-response curve was fitted using a formula log(inhibitor) vs. response-Variable slope (Four parameters) of analysis software Graphpad Prism 8 to obtain the IC50 value of each compound on NCI-H1417 proliferation inhibition activity.

The nature of data set [4]: Liver microsome stability, rats. It counts as in vitro ADME. The conditions noted are these: Rats liver microsomes; for CLint scaled / half-life: rat; for half-life: NADPH, 37° C. The procedure: as §1, §2, §3
Data set [5] in a line: Liver microsome stability, humans. It counts as in vitro ADME. The settings on record: Humans liver microsomes; for CLint scaled / half-life: human; for half-life: NADPH, 37° C. As to the method:
as §1, §2, §3

Data set [6] in a line: Liver microsome stability, mice. It counts as in vitro ADME. The conditions noted are these: Mice liver microsomes; for CLint scaled / half-life: mouse; for half-life: NADPH, 37° C. The procedure: as §1, §2, §3

By AUC(0-t) is commonly meant exposure summed from dosing to a finite time, without extrapolation to infinity. The low end stands for less exposure, the high end for more exposure. By Cmax is commonly meant the maximum level reached in the sampled fluid or tissue. What is called Tmax is the time from dosing to the highest level. As a reminder, the half-life is how long it takes for the measured level to halve. A lower half-life goes with fast loss. The CLint scaled is a measure of how fast metabolising enzymes remove a compound, apart from limits set by blood flow. As a reminder, the IC50 is the midpoint of a concentration-inhibition curve. The low end stands for higher potency, the high end for lower potency. `COc1ccc(-c2c(-c3ccc(C#N)c(F)c3)nc(N3CCC(N)CC3)n(C)c2=O)cc1F` [CC-90011, reference compound] yielded an AUC(0-t) in data set [1] of 356 ± 46.5 ng·h/mL. The molecule also showed a Cmax in data set [1] of 48.9 ± 12.5 ng/mL. Moreover, the Tmax in data set [1] is 3.33 ± 2.31 h. The half-life in data set [1] was 1.44 ± 0.52 h; in data set [2], 2.1 h; in data set [3], 1.25 h; in data set [4] it was 1.33 h; in data set [5], 1.57 h; in data set [6], 2.17 h. For the same molecule, the “Remaining (T = 60 min)” value is listed as 76.6% in data set [2]; 56.8% in data set [3]; 58.6% in data set [4]; 67.2% in data set [5]; 72.2% in data set [6]. For the same molecule, the CLint scaled worked out at 15.8 mL/min/kg in data set [2]; 25 mL/min/kg in data set [3]; 31.2 mL/min/kg in data set [4]; 13.2 mL/min/kg in data set [5]; 42.2 mL/min/kg in data set [6]. In the data set with NCI-H1417 cells, this molecule yielded an IC50 of 22.9 nM.

`CC(C)(O)Cn1ncc2cc(-c3c(C#N)cc(N4CCC(N)CC4)nc3-c3ccc(C#N)c(F)c3)c(F)cc21` [Compound 16, 6-(4-aminopiperid-1-yl)-2-(4-cyano-3-fluorophenyl)-3-(6-fluoro-1-(2-hydroxyl-2-methylpropyl)-1H-indazol-5-yl)isonicotinonitrile] displayed an AUC(0-t) in data set [1] of 561 ± 347 ng·h/mL. Also, the Cmax in data set [1] amounted to 69.9 ± 33.5 ng/mL. For the same molecule, the time of peak concentration (Tmax) in data set [1] worked out at 4 h. The half-life in data set [1] is 3.46 ± 0.02 h; in data set [2], > 2.42 h; in data set [3], 1.62 h; in data set [4], > 2.42 h; in data set [5] it was > 2.42 h; in data set [6], > 2.42 h. The “Remaining (T = 60 min)” value in data set [2] worked out at 76.4%; in data set [3] it was 62.0%; in data set [4], 72.1%; in data set [5] it was 70.8%; in data set [6], 77.8%. Further, the CLint scaled in data set [2] was < 13.8 mL/min/kg; in data set [3], 19.2 mL/min/kg; in data set [4], < 17.3 mL/min/kg; in data set [5] it was < 8.6 mL/min/kg; in data set [6], < 38 mL/min/kg. The molecule also displayed an IC50 in the data set with NCI-H1417 cells of 2.79 nM.

Regarding `CC(C)(O)Cn1nc(F)c2cc(-c3c(C#N)cc(N4CCC(N)CC4)nc3-c3ccc(C#N)c(F)c3)c(F)cc21` [Compound 36, 6-(4-aminopiperid-1-yl)-2-(4-cyano-3-fluorophenyl)-3-(3,6-difluoro-1-(2-hydroxyl-2-methylpropyl)-1H-indazol-5-yl)isonicotinonitrile], in data set [1], the AUC(0-t) turned out to be 769 ± 361 ng·h/mL, the Cmax worked out at 100 ± 54.4 ng/mL, the Tmax came to 4.67 ± 1.15 h and the half-life is 3.57 ± 0.34 h. In data set [2], the “Remaining (T = 60 min)” value came to 76.3%, the CLint scaled was < 13.8 mL/min/kg and the half-life was > 2.42 h. In data set [3], the “Remaining (T = 60 min)” value stood at 72.1%, the CLint scaled came out at 16.9 mL/min/kg and the half-life was found to be 1.84 h. The molecule also returned an IC50 with NCI-H1417 cells of 4 nM. Also, in data set [4], the “Remaining (T = 60 min)” value is listed as 76.1%, the CLint scaled is < 17.3 mL/min/kg and the half-life is > 2.42 h. Besides, in data set [5], the “Remaining (T = 60 min)” value was determined as 81.7%, the CLint scaled was < 8.6 mL/min/kg and the half-life was > 2.42 h. In addition, in data set [6], the “Remaining (T = 60 min)” value came out at 75.5%, the CLint scaled was < 38 mL/min/kg and the half-life was > 2.42 h.
